Assay [1] concerns isolated rat soleus muscles exposed to tubocurarine. The assay can be described thus: Recovery of nerve-stimulated contractile force in isolated rat soleus nerve-muscle preparation after tubocurarine. The settings on record: tubocurarine 115 nM, after 40 mins of compound exposure. As for the experimental part: The current disclosure relates to compounds that inhibit CIC-1 ion channels and increase muscle excitability and thereby improve muscle function in clinical conditions where muscle activation is failing. Such conditions result in loss of contractile function of skeletal muscle, weakness and excessive fatigue. In this series of experiments the compounds were tested for their ability to restore contractile function of isolated rat muscle when the neuromuscular transmission had been compromised akin to neuromuscular disorders.
Experimentally, soleus muscles from 4-5 week old rats were isolated with the motor nerve remaining attached. The nerve-muscle preparations were mounted in experimental setups that enabled electrical stimulation of the motor nerve. Stimulation of the motor nerve led to activation of the muscle fibres and ensuing force production that was recorded. The nerve-muscle preparations were also in these experiments incubated in the standard Krebs Ringer (see example 15) and the solution was heated to 30° C. and continuously equilibrated with a mixture of 95% O2 and 5% CO2, PH ˜7.4.
After mounting the nerve-muscle preparation in the experimental setup, the contractile function of the muscle was initially assessed under the control conditions. Sub-maximal concentration of tubocurarine (115 nM), an acetylcholine receptor antagonist, was then added to the experimental bath to impose partial inhibition of the ability of the motor nerve to activate the muscle fibres. The experimental condition mimics the failing neuromuscular transmission in a range of neuromuscular disorders. After addition of tubocurarine the contractile force declined over the next 90 minutes to 10-50% of the control force. The test compound was then added to obtain the required compound concentration in the bath and the contractile force recovered was measured. To quantify the ability of the compound to restore force the percentage of the initial force that was restored was determined after 40 mins of compound exposure and the point increase is reported in Table 2.

In assay [2] the target is T1, CIC-1 ion channel (Rattus norvegicus, UniProt P35524).
T1 construct: from tissue; host or cells: intact soleus muscle of 12-14 week old Wistar rats
T1 sequence (P35524 1-994): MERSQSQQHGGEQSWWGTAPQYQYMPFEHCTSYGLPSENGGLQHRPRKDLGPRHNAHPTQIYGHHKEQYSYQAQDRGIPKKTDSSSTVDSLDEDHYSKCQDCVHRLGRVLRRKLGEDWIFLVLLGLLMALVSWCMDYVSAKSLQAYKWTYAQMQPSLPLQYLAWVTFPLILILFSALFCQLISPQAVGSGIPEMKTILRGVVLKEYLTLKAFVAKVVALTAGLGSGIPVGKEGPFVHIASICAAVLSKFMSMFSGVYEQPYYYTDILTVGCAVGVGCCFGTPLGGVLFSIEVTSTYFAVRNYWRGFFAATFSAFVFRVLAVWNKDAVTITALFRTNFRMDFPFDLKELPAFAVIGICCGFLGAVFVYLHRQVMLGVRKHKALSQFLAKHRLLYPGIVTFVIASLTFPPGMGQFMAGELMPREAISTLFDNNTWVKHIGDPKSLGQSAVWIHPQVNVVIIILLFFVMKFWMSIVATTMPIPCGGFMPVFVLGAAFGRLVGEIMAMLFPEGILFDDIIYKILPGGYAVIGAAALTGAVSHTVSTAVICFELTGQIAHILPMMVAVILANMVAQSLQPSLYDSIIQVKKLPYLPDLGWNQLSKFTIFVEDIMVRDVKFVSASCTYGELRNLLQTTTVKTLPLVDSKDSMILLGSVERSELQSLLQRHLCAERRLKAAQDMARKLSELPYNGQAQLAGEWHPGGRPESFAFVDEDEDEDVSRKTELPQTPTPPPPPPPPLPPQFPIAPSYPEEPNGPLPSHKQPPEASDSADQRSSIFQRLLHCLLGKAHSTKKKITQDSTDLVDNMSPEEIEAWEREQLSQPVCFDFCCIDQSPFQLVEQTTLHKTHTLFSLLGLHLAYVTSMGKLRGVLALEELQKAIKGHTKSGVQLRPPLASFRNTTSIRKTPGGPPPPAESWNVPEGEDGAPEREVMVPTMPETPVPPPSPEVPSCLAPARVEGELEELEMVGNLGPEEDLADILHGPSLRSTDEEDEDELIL
The assay can be described thus: Electrophysiological measurement (Gm, three micro-electrodes) of compound inhibition of CIC-1 in rat soleus muscle fibres. The settings on record: Gm in whole rat soleus muscle fibres, approx. 30° C., four increasing compound concentrations. The format is cell-based. On the procedure:
Apparent CIC-1 affinity was reported by the concentration of compound at which 50% of the compound's full inhibition of CIC-1 was observed (EC50).
Experimentally, Gm was measured in individual fibres of whole rat soleus muscles using a three micro-electrodes technique described in this example and in full detail elsewhere (Riisager et al., Determination of cable parameters in skeletal muscle fibres during repetitive firing of action potentials. Journal of Physiology, 2014, 592, 4417-4429). Briefly, intact rat soleus muscles were dissected out from 12-14 week old Wistar rats and placed in an experimental chamber that was perfused with a standard Krebs Ringer solution containing 122 mM NaCl, 25 mM NaHCO3, 2.8 mM KCl, 1.2 mM KH2PO4, 1.2 mM MgSO4, 1.3 mM CaCl2), 5.0 mM D-glucose. During experiments, the solution was kept at approx. 30° C. and continuously equilibrated with a mixture of 95% O2 and 5% CO2, PH ˜7.4. The experimental chamber was placed in Nikon upright microscope that was used to visualize individual muscle fibres and the three electrodes (glass pipettes filled with 2 M potassium citrate). For Gm measurements, the electrodes were inserted into the same fibre with known inter-electrode distances of 0.35-0.5 mm (V1-V2, X1) and 1.1-1.5 mm (V1-V3, X3). The membrane potential of the impaled muscle fibre was recorded by all electrodes. Two of the electrodes were furthermore used to inject 50 ms current pulses of −30 nA. […] The steady state voltage deflection at each distance was divided by the magnitude of current injected (−30 nA) and the resulting transfer resistances were plotted against inter-electrode distance and the data was fitted to a mono-exponential function from which Gm could be calculated using linear cable theory.
To establish a dose response relationship, Gm was first determined in 10 muscle fibres in the absence of compound and then at four increasing compound concentrations with Gm determinations in 5-10 fibres at each concentration. The average Gm values at each concentration were plotted against compound concentration and the data was fitted to sigmoidal function to obtain an EC50 value.

The test system of assay [3] is Lewis rats. The assay can be described thus: In situ isometric hindlimb force in anaesthetised rats under partial neuromuscular block by Cisatracurium. Format: in vivo, rat. The settings on record: sodium salt, 80 Hz stimulation, Cisatracurium infusion. On the procedure:
Isometric hindlimb force was measured in 12-week old female Lewis rats in the presence and absence of compound.
Rats were placed under anaesthesia with isoflurane (2-4%), intubated and subsequently connected to a micro ventilator (Microvent 1, Hallowell EMC, US). Two stimulation electrodes were inserted through the skin to stimulate the sciatic nerve. A small incision was made proximal to the ankle, to expose the Achilles tendon, which was tied by cotton string, and connected to a force transducer (Fort250, World Precision Instruments) with adjustable position (Vernier control). The Achilles tendon was then cut distal to the attached cotton string. […]
Muscle contractile properties were assessed by applying an electrical current (under supramaximal voltage conditions) to the nerve and recording the force generated by the muscle. The muscle was stretched until maximal force was obtained, when assessed by 2 Hz stimulation. Isometric force was measured every 30 seconds at 12 Hz (Twitch), 10 pulses, and at every 5 minutes at 80 Hz (Tetanic) for 1 second (80 pulses). […] The effect of test article was assessed on its ability to increase force generated from the stimulation pattern applied. The effect was assessed in the ability to increase force per se (tetanic, 80 Hz, stimulation), and the ratio between individual twitch peaks (12 Hz stimulation). […]

Turning to `Cc1cc(Cl)c(OC(F)F)c(C(=O)O)c1C` [Compound A-9, 3-chloro-2-(difluoromethoxy)-5,6-dimethylbenzoic acid], in assay [1] (test compound 50 μM), the “Point increase, percentage of initial force that was restored” value (“Point increase, percentage” below) came to 50%. In addition, the response in assay [2] was half-maximal at 4.3 µM (EC50).
Turning to `COc1c(Cl)cc(C)c(Cl)c1C(=O)O` [Compound A-6, 2,5-dichloro-6-methoxy-3-methylbenzoic acid], in assay [1] (test compound 10 μM), the “Point increase, percentage” value is given as 28%. The EC50 (commonly the concentration at which the effect is half-maximal) in assay [2] came out at 5.8 µM.
As for `CSc1c(Cl)cc(C)c(C)c1C(=O)O` [Compound A-8, 3-chloro-5,6-dimethyl-2-(methylsulphanyl)benzoic acid], the “Point increase, percentage” value in assay [1] (test compound 10 μM) was found to be 24%. This molecule came in with an EC50 in assay [2] of 3.2 µM.
For the molecule `COc1c(Br)cc(C)c(C)c1C(=O)O` [Compound A-13, 3-bromo-2-methoxy-5,6-dimethylbenzoic acid], the “Point increase, percentage” value in assay [1] (test compound 10 μM) is listed as 29%. This molecule also showed an EC50 in assay [2] of 4.4 µM.
`CCOc1c(Cl)cc(C)c(C)c1C(=O)O` [Compound A-12, 3-chloro-2-ethoxy-5,6-dimethylbenzoic acid]: the “Point increase, percentage” value in assay [1] (test compound 50 μM) is on record as 39%.
`COc1c(Cl)cc(C)c(C)c1C(=O)O` [Compound A-14, 3-chloro-2-methoxy-5,6-dimethylbenzoic acid]: the “increase in tetanic force” value in assay [3] (10 mg/kg p.o. in PBS) is 45%. In assay [1] (test compound 50 μM), the “Point increase, percentage” value is on record as 44%. Also, a half-maximal effect in assay [2] (EC50) was put at 3.2 µM.
On to `Cc1cc(Cl)c(OCF)c(C(=O)O)c1C` [Compound A-10, 3-chloro-2-(fluoromethoxy)-5,6-dimethylbenzoic acid], for which the “Point increase, percentage” value in assay [1] (test compound 10 μM) worked out at 21%. In addition, the EC50 in assay [2] came to 4.1 µM.
Regarding `COc1c(C)cc(F)c(OC)c1C(=O)O` [Compound A-1, 3-fluoro-2,6-dimethoxy-5-methylbenzoic acid], in assay [1] (test compound 50 μM), the “Point increase, percentage” value is recorded as 19%.
For `Cc1cc(Cl)c(OC(F)(F)F)c(C(=O)O)c1C` [Compound A-4, 3-chloro-5,6-dimethyl-2-(trifluoromethoxy)benzoic acid], the “Point increase, percentage” value in assay [1] (test compound 10 μM) stood at 23%. The response in assay [2] was half-maximal at 1.7 µM (EC50).
For `COc1c(Cl)cc(Cl)c(OC)c1C(=O)O` [Compound A-3, 3,5-Dichloro-2,6-dimethoxybenzoic acid], in assay [1] (test compound 50 μM), the “Point increase, percentage” value worked out at 46%. Also, in assay [2], the EC50 was 7.4 µM.
Take `COc1c(F)cc(C)c(C)c1C(=O)O` [Compound A-11, 3-fluoro-2-methoxy-5,6-dimethylbenzoic acid]: the “Point increase, percentage” value in assay [1] (test compound 50 μM) is 25%.
For `COc1c(C)cc(Cl)c(OC)c1C(=O)O` [Compound A-7, 3-chloro-2,6-dimethoxy-5-methylbenzoic acid], in assay [3] (2.5 mg/kg i.v. in PBS), the “increase in tetanic force” value stood at 27%. Besides, the “Point increase, percentage” value in assay [1] (test compound 50 μM) amounted to 44%. In assay [2], this molecule came in with an EC50 of 5.3 µM.
As for `COc1c(F)cc(Br)c(OC)c1C(=O)O` [Compound A-2, 3-bromo-5-fluoro-2,6-dimethoxybenzoic acid], the “Point increase, percentage” value in assay [1] (test compound 100 μM) is 16%.
On to `Cc1cc(Cl)c(OC2CC2)c(C(=O)O)c1C` [Compound A-5, 3-chloro-2-cyclopropoxy-5,6-dimethylbenzoic acid], for which the “Point increase, percentage” value in assay [1] (test compound 50 μM) is recorded as 48%. The EC50 in assay [2] came to 6.6 µM.

The values are drawn from patent US20260007625A1, “Compounds for the Treatment of Neuromuscular Disorders” (NMD PHARMA A/S, priority 2022, published 2026).
